# Experimental data from patent US20240398772A1, “OXASPIRO DERIVATIVE, AND PREPARATION METHOD THEREFOR AND USE THEREOF” (SHUJING BIOPHARMA CO., LTD, priority 2021, published 2024).
# Legend:
# MOR = target: T1, MOR (Homo sapiens, UniProt P35372); assay: Agonist test on MOR, cAMP level (CHO-K1/OP3 cells, cAMP assay kit); assay type: cell-based; details: for EC50: forskolin-stimulated cAMP, read-out: EC50 agonizing MOR receptor to affect cAMP level; for Emax: maximal effect of DAMGO is 100%, read-out: Emax agonizing MOR receptor to affect cAMP level
# T1 construct: expressed in transfected cells; host or cells: CHO-K1/OP3 (name from the earlier reading)
# T1 sequence (P35372 whole entry): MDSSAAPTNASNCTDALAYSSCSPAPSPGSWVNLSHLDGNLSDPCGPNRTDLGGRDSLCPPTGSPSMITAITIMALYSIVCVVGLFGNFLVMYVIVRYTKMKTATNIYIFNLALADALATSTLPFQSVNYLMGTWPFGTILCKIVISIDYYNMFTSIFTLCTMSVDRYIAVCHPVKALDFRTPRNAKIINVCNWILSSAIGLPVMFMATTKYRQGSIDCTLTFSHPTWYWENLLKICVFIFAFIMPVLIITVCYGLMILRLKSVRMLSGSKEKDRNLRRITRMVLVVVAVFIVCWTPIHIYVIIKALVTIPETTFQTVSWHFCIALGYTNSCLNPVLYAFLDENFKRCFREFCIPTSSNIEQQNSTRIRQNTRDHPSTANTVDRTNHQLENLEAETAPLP
# Experimental: 5×stimulation buffer was diluted to 1× with ddH2O, an appropriate amount of 500 mM IBMX (generally, the IBMX stock solution was prepared to be 500 mM, namely 1000×) was added to enable the final concentration of the IBMX to be 0.5 mM, and the mixture was mixed well for later use (after the IBMX was added, that precipitation occurred was normal, and the precipitate was dissolved by well mixing). It must be prepared right before use.
# 1.3.1.2 IBMX was dissolved with DMSO to prepare a 500 mM stock solution, which was aliquoted into 20 μL/tube and cryopreserved at −80° C. to avoid repetition of freezing and thawing.
# 1.3.1.3 Forskolin was dissolved with DMSO to prepare a 10 mM stock solution, which was aliquoted into 20 μL/tube and cryopreserved at −20° C. for later use.
# The CAMP standard substance in the kit returned to room temperature, and an equivalent amount of the experimental buffer was added according to the volume marked on the bottle label. The mixture was vortexed for mixing, aliquoted according to 50 μL/tube, and cryopreserved at −20° C. for later use.
# 5 mL ddH2O was added to a bottle of cAMP-d2 and a bottle of anti-cAMP-cryptate lyophilized powder, respectively, and the mixture was mixed well by gently turning the mixture upside down, aliquoted according to 125, 62.5, and 30 μL, and the like, and cryopreserved in the dark at −80° C.
# 1.3.2.1 Positive compound DAMGO and the test compound were serially diluted 4-fold to obtain 10 concentrations with Bravo using experimental buffer in a compound plate (Greiner-781280) at a starting concentration of 2 μM (from DMSO stock solution diluted with experimental buffer) and 20 μM (from DMSO stock solution diluted with experimental buffer), respectively.
# 1.3.2.2 Cells cryopreserved were thawed in a water bath at 37° C., the cell suspension was added to a centrifuge tube containing 10 mL of HBSS buffer, and the mixture was centrifuged at 750 rpm for 5 min. The supernatant was discarded, the pellet was resuspended in an appropriate amount of experimental buffer, and 20 μL of the pellet was counted using a cell counter. An appropriate amount of the cell suspension was diluted to 0.4×10^6 cells/mL, and 5 μL of the cell suspension was added to each well of a cell plate (the cell density was 2000 cells/well) and centrifuged at 1000 rpm for 1 min. 5 μL of the diluted compound was transferred to a cell plate (PerkinElmer-6008280) with Bravo, 5 μL of 2 μM DAMGO (the final concentration was 1 μM) was transferred to positive control wells, and an equal volume of experimental buffer was transferred to negative control wells, and the cell plate was centrifuged at 1000 rpm for 1 min. The cell plate was sealed and incubated at room temperature for 15 min. Forskolin was diluted to 0.2 mM with DMSO, 25.1 nL of which was transferred to a cell plate with Tecan-D300e, and the plate was centrifuged at 1000 rpm for 1 min, sealed, and incubated at room temperature for 45 min.
# The final concentration of the initial point was 712 nM.
# 1.3.2.4 Preparation of detection reagent: an appropriate amount of a cAMP-d2 stock solution and an anti-cAMP-cryptate stock solution was diluted with a lysis buffer according to the ratio of 1:20, the two solutions were then mixed well by turning the solutions upside down according to the ratio of 1:1, and vortexing was prohibited. 10 μL of the prepared detection reagent was added to a cell plate and centrifuged at 1000 rpm for 1 min. The cell plate was incubated at room temperature for 1 h in the dark. After the cell plate was centrifuged at 1000 rpm for 1 min, the plate was read using Envision. Excitation light at 340 nm, emission light at 620 nm and 665 nm.
# The formula for calculating the compound activation rate in the agonist test: […]
# MOR beta-arrestin = target: T2, MOR beta-arrestin (Homo sapiens, UniProt P35372); assay: MOR beta-arrestin agonist test (PathHunter, U2OS/OPRM1 cell line); assay type: cell-based; details: Human Mu opioid β-arrestin U2OS/OPRM1 cell line; for Emax: maximal effect of DAMGO is 100%, read-out: Emax for activating beta-arrestin signaling pathway; for EC50: read-out: EC50 for activating beta-arrestin signaling pathway
# T2 construct: expressed in transfected cells; host or cells: MOR beta-arrestin cell strain (U2OS/OPRM1 PathHunter per the earlier reading), kept under Hygromycin B and G418 selection
# T2 sequence (P35372 whole entry): as above
# Experimental: • Cell complete medium: MEM+10% FBS+1% PS+250 μg/mL Hygromycin B+500 μg/mL G418 +1×GlutaMAX • Cell inoculation medium: MEM+10% FBS+1% PS • Experimental buffer: 1×DPBS+0.1% BSA • Detection reagent: Galacton Star:Emerald II:PathHunter cell assay buffer=1:5:19
# • i) Compound samples were dissolved in DMSO to a stock concentration of 10 mM; • ii) A sample dilution sequence on a 384-well LDV plate was prepared, wherein the first concentration point of the sample was 10 mM (FAC=30 μM), and the sample was serially diluted 3.162-fold to obtain a total of 11 concentration points; • iii) The sample dilution sequence and HPE and ZPE were transferred to a compound plate (PE #6008590) using an Echo machine, with each well 90 nL transferred.
# • i) The MOR beta-arrestin cell strain was cultured in a cell complete medium at 37° C. with 5% CO2 to a confluence of 70-90%; • ii) the cells were digested and resuspended in the cell inoculation medium, and 20 μL of the MOR beta-arrestin cell suspension was added to each well of an assay plate (Corning #3570) at 7500 cells/well and incubated in an incubator at 37° C. with 5% CO2 for 24 h; • iii) 30 μL of an experimental buffer was added to a compound plate (PE #6008590), and the plate was centrifuged at 1000 rpm for 5 min; • iv) after 24 h, the assay plate was taken out, the medium was removed from the plate, and then 20 μL of the compound was transferred from each corresponding well of the compound plate to the assay plate with Bravo; • v) the assay plate was centrifuged at 500 rpm for 30 s and then placed into an incubator for incubation at 37° C. with 5% CO2 for 90 min; • vi) 10 μL of the beta-arrestin detection reagent was added to each well of the assay plate; • vii) after 1 h of incubation at room temperature in the dark, the plate was read on Envision.
# The experimental data of the percent activation rate and concentrations of 11 points were fitted using XLFit to a parameter nonlinear logic
# Use formula to calculate the EC50 value of the compound, and the results are shown in Table 7 (maximal effect of DAMGO is 100%).
# [1] = test system: pain threshold of a mouse; assay: Mouse thermal radiation tail-flick method; assay type: in vivo, ICR mice; details: for Maximum analgesic percentage (% MPE): ICR mice, intragastric 10 mg/kg, Mean ± SEM, n = 9-10
# Experimental: • Intragastric administration at a dose of 10 mg/kg;
# ICR mice (normal grade, weighed 25-35 g, purchased from Shanghai Slac Laboratory Animal Co., Ltd.) were first mounted in a special plastic cylinder, their tails were exposed and allowed to droop naturally, and the measurements were made after the animals were calm. The radiation heat source could be an 8.75 mm projection lamp (32 W, adjustable). A light beam with the diameter of about 4 mm was emitted after being focused by a lens, which irradiated the skin at the junction of the middle third and the lower third of the tail (the light source and the skin at the tail must be closely attached); an electronic timer connected with the light source in parallel was used to synchronously record the irradiation duration, that is, when the irradiation started, a stopwatch was automatically started at the same time. When the tail of the animal obviously evaded, the timing was automatically stopped. The measured time interval was the tail flick latency. Mice with tail flick latency of 2-6 seconds were screened to participate in a grouping administration experiment. […] After a dose of a drug was administered to the mice, the pain threshold of the mice was measured at different times.
# After a dose of a drug was administered to the mice, the pain threshold of the mice was measured at 0.5 h, 1 h, 2 h, and 3 h (effect view of the analgesic effect is shown in FIG. 1). The formula for calculating the maximum analgesic percentage (% MPE) after administration was as follows: % MPE=(post-administration pain threshold−pre-administration pain threshold)/(15−pre-administration pain threshold)×100%.
Compound,EC50 (MOR) [µM],Emax (MOR) [%],Emax (MOR beta-arrestin) [%],EC50 (MOR beta-arrestin) [µM],Maximum analgesic percentage (% MPE) ([1]; 0.5 h after administration) [%],Maximum analgesic percentage (% MPE) ([1]; 1 h after administration) [%],Maximum analgesic percentage (% MPE) ([1]; 2 h after administration) [%],Maximum analgesic percentage (% MPE) ([1]; 3 h after administration) [%],"Maintenance of the analgesic effect compared with oxycodone ([1]; mouse tail flick, 0.5-3 h after administration)","Drug effect compared with oxycodone ([1]; mouse tail flick, same dose (10 mg/kg intragastric))"
"Fc1ccc(C2(CCNC3Cc4ccccc4C3)CCOC3(CCOCC3)C2)nc1 (stereo not drawn) [Compound 8, N-(2-(4-(5-fluoropyridin-2-yl)-1,9-dioxaspiro[5.5]undecan-4-yl)ethyl)-2,3-dihydro-1H-inden-2-amine]",0.00862,72,2.1,0.364,,,,,,
"Cc1c(Cl)cccc1CNCCC1(c2ccc(F)cn2)CCOC2(CCOCC2)C1 (stereo not drawn) [Compound 12, N-(3-chloro-2-methylbenzyl)-2-(4-(5-fluoropyridin-2-yl)-1,9-dioxaspiro[5.5]undecan-4-yl)ethan-1-amine]",0.00763,89.8,6.3,> 30,,,,,,
"Fc1ccc([C@]2(CCNC3Cc4ccccc4C3)CCOC3(CCOCC3)C2)nc1 [Compound 8-1, (R)—N-(2-(4-(5-fluoropyridin-2-yl)-1,9-dioxaspiro[5.5]undecan-4-yl)ethyl)-2,3-dihydro-1H-inden-2-amine]",0.0041,92.8,3,> 30,80.64 ± 9.27,85.69 ± 5.95,69.94 ± 10.43,87.16 ± 6.80,maintained for a longer period of time,better drug effect than oxycodone
"c1ccc(C2(CCNC3CCc4ccccc43)CCOC3(CCOCC3)C2)nc1 (stereo not drawn) [Compound 15, N-(2-(4-(pyridin-2-yl)-1,9-dioxaspiro[5.5]undecan-4-yl)ethyl)-2,3-dihydro-1H-inden-1-amine]",0.0307,96.9,7.2,1.78,,,,,,
"Fc1ccc(C2(CCNC3Cc4cccc(Br)c4C3)CCOC3(CCOCC3)C2)nc1 (stereo not drawn) [Compound 10, 4-bromo-N-(2-(4-(5-fluoropyridin-2-yl)-1,9-dioxaspiro[5.5]undecan-4-yl)ethyl)-2,3-dihydro-1H-inden-2-amine]",0.00279,80.9,4.5,4.8,,,,,,
"Fc1ccc([C@]2(CCNCc3cccc(Cl)c3Cl)CCOC3(CCOCC3)C2)nc1 [Compound 13-1, (R)—N-(2,3-dichlorobenzyl)-2-(4-(5-fluoropyridin-2-yl)-1,9-dioxaspiro[5.5]undecan-4-yl)ethan-1-amine]",0.0187,78.6,4.2,> 30,,,,,,
